{"source": "paper PMC6151529", "about": "“Design, Synthesis and Biological Evaluation of N,N-Substituted Amine Derivatives as Cholesteryl Ester Transfer Protein Inhibitors” (Molecules : A Journal of Synthetic Chemistry and Natural …, 2017)", "key": {"HDL-C levels": {"test_system": "HDL-C levels", "settings": "clinical, cited from earlier work"}, "LDL-C levels": {"test_system": "LDL-C levels", "settings": "clinical, cited from earlier work"}, "CETP": {"molecular_target": "T1, CETP (Homo sapiens, UniProt P11597)", "T1 construct": "purchased Roar, New York, NY, USA RB-RPAK", "T1 sequence (P11597 18-493)": "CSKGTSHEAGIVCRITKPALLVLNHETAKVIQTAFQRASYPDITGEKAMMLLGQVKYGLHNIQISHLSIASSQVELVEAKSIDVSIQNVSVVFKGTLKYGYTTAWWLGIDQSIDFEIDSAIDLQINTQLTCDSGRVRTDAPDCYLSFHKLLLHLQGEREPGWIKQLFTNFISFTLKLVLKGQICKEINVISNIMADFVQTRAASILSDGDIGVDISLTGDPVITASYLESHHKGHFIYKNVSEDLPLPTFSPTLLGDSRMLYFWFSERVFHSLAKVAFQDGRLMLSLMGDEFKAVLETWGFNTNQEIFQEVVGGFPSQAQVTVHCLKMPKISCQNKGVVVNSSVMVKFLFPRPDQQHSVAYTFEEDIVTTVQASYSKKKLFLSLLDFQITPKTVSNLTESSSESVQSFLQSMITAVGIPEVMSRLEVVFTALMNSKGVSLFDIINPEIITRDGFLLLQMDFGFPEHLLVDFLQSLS", "assay": "CETP inhibitory activity, BODIPY-CE fluorescence assay (CETP RP Activity Assay Kit)", "assay_type": "biochemical", "settings": "for IC50: read-out: IC50 (CETP inhibition); for CETP inhibition (in words): BODIPY-CE fluorescence assay", "procedure": "All tested compounds were dissolved in 100% DMSO, making sure the compound was dissolved totally. The solution was vibrated hard on an oscillator for more than 30 s and then stored in a nitrogen cabinet. The stock solutions (10 mM) were diluted with DMSO for an 8-point titration (1:5 serial dilutions) in a 96-well dilution plate. […] Compounds were tested at eight concentrations, and the fluorescence intensity were measured using a fluorometer (ExEm = 465/535 nm). The IC50 was determined from a curve fit of the data with each concentration tested three times."}, "CYP3A4": {"molecular_target": "T2, CYP3A4 (Homo sapiens, UniProt P08684)", "T2 construct": "from tissue; host or cells: human liver microsomes", "T2 sequence (P08684 whole entry)": "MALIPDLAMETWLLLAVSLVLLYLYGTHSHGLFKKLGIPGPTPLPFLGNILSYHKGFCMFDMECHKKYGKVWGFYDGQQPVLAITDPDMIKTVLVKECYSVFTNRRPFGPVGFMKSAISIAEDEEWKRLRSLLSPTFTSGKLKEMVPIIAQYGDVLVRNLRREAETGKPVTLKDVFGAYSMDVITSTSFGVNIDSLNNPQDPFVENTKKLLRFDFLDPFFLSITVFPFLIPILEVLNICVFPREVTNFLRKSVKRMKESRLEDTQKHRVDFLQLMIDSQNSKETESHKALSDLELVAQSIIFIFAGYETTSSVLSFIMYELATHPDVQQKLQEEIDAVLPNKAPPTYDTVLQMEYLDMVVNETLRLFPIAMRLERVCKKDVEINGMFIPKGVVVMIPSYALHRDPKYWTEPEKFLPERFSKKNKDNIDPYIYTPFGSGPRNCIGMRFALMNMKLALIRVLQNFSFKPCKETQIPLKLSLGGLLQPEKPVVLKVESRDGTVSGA", "assay": "Cytochrome P450 inhibition assay, CYP3A4", "assay_type": "in vitro ADME", "settings": "human liver microsomes, pH 7.4, probe midazolam (2 μM), 10 μM compound, human liver microsomes 0.25 mg/mL, substrate midazolam, read-out: CYPs Direct Inhibition Mean (10 μM) 3A4", "procedure": "(§1) Five specific probe substrates (CYP3A4, 2 μM midazolam; CYP2D6, 5 μM dextromethorphan; CYP2C9, 5 μM diclofenac; CYP1A2, 10 μM phenacetin; CYP2C19, 30 μM S-mephenytoin) were used to evaluated cytochrome P450 inhibition in human liver microsomes (0.25 mg/mL). A mixture of 20 μL specific probe substrate solution and 20 μL buffer solution (100 mM K3PO4, 33 mM MgCl2, pH = 7.4) was added compound (2 μL) and 158 μL human liver microsomes solution (0.25 mg/mL). The mixture were incubated at 37 °C for 10 min and another 10 min underwent after 20 μL NADPH solution added. Consecutively, 400 µL cold stop solution (200 ng/mL tolbutamide and 200 ng/mL labetalol in acetonitrile) was added to terminated the reaction. After the reactions were terminated, The plates were centrifuged (4000 rpm) at room temperature for 20 min, and the supernatants were analysed by LC/MS/MS."}, "CYP2D6": {"molecular_target": "T3, CYP2D6 (Homo sapiens, UniProt P10635)", "T3 construct": "from tissue; host or cells: human liver microsomes", "T3 sequence (P10635 whole entry)": "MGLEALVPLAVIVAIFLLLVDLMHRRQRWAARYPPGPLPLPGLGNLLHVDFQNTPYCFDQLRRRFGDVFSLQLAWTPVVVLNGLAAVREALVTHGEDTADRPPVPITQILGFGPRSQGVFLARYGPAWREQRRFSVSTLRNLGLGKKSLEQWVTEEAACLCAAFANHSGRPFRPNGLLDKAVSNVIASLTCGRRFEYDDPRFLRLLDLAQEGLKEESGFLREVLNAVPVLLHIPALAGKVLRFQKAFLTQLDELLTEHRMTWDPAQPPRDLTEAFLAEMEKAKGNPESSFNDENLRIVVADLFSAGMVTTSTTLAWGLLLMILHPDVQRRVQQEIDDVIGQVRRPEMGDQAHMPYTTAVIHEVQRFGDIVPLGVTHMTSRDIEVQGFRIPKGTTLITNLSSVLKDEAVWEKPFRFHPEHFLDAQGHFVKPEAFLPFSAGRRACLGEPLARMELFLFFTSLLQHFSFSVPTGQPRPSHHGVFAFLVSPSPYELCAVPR", "assay": "Cytochrome P450 inhibition assay, CYP2D6", "assay_type": "in vitro ADME", "settings": "10 μM compound, human liver microsomes 0.25 mg/mL, substrate dextromethorphan", "procedure": "as §1"}, "CYP1A2": {"molecular_target": "T4, CYP1A2 (Homo sapiens, UniProt P05177)", "T4 construct": "from tissue; host or cells: human liver microsomes", "T4 sequence (P05177 1-516)": "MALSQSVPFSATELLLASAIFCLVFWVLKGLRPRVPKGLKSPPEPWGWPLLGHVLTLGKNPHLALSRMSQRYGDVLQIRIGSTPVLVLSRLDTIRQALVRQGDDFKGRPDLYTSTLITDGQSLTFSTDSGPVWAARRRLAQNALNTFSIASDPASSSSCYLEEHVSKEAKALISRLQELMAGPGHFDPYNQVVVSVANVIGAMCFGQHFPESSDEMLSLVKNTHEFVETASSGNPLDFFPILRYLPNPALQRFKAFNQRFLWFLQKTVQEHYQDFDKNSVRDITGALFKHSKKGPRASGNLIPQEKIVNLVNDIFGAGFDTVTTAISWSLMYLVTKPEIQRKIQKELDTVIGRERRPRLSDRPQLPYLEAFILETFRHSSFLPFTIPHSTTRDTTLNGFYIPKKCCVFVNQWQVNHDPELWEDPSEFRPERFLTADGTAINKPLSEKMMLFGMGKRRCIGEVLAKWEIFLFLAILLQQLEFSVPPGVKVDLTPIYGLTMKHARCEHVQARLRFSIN", "assay": "Cytochrome P450 inhibition assay, CYP1A2", "assay_type": "in vitro ADME", "settings": "10 μM compound, human liver microsomes 0.25 mg/mL, substrate phenacetin", "procedure": "as §1"}, "[1]": {"assay": "Metabolic stability in rat liver microsomes", "assay_type": "in vitro ADME", "settings": "37 °C, NADPH, 0-60 min, read-out: RLM Stability (rat liver microsomal intrinsic clearance)", "procedure": "(§2) Ten μL (100 μM/L) of compound and 80 μL liver microsomes were mixture and incubated at 37 °C for 10 min, and then 10 μL NADPH regenerating system was added. Samples were obtained at 0 min, 5 min, 10 min, 20 min, 30 min and 60 min respectively, and 300 μL stop solution (cold in 4 °C, including 100 ng/mL tolbutamide and 100 ng/mL labetalol) was added to terminate the reaction. After oscillating for 10 min, the plates were centrifuged (4000 rpm) at room temperature for 20 min, and the supernatants were used for analyzation."}, "CYP2C9": {"molecular_target": "T5, CYP2C9 (Homo sapiens, UniProt P11712)", "T5 construct": "from tissue; host or cells: human liver microsomes", "T5 sequence (P11712 whole entry)": "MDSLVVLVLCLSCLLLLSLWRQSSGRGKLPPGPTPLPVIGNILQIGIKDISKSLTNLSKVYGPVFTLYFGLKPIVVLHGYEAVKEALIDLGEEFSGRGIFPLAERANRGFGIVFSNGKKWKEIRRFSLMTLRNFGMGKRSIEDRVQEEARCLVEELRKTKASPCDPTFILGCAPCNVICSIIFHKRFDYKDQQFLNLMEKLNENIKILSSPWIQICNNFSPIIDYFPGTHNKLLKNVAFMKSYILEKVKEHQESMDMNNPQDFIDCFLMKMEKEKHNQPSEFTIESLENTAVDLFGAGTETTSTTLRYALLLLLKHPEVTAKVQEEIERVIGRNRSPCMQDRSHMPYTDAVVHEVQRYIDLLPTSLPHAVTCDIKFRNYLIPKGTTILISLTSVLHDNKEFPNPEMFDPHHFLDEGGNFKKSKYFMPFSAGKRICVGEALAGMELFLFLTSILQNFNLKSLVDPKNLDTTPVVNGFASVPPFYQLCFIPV", "assay": "Cytochrome P450 inhibition assay, CYP2C9", "assay_type": "in vitro ADME", "settings": "human liver microsomes, pH 7.4, probe diclofenac (5 μM), 10 μM compound, human liver microsomes 0.25 mg/mL, substrate diclofenac, read-out: CYPs Direct Inhibition Mean (10 μM) 2C9", "procedure": "as §1"}, "[2]": {"assay": "Metabolic stability in human liver microsomes", "assay_type": "in vitro ADME", "settings": "37 °C, NADPH, 0-60 min, read-out: HLM Stability (human liver microsomal intrinsic clearance)", "procedure": "as §2"}}}
{"smiles": "COc1cc(F)c(C(C)C)cc1-c1ccc(C(F)(F)F)cc1CN1C(=O)O[C@H](c2cc(C(F)(F)F)cc(C(F)(F)F)c2)[C@@H]1C", "note": "[Anacetrapib]", "values": [{"measurement": "raise of HDL-C levels", "setting": "HDL-C levels; printed as 'to'", "result": 130, "unit": "%"}, {"measurement": "decrease of LDL-C levels", "setting": "LDL-C levels; printed as 'to'", "result": 40, "unit": "%"}]}
{"smiles": "COc1ccc(C(C)C)cc1C1=C(CN(Cc2cc(C(F)(F)F)cc(C(F)(F)F)c2)c2nnn(CC(=O)O)n2)CC(C)(C)CC1", "note": "[Compound 17, N-(3,5-Bis(trifluoromethyl)benzyl)-N-((2-(5-isopropyl-2-methoxyphenyl)-5,5-dimethylcyclohex-1-enyl)-methyl)-2H-tetrazol-5-amine-2-acetic acid]", "values": [{"measurement": "activity weaker than the reference compound (fold)", "setting": "CETP; IC50 versus reference compound anacetrapib", "result": 10, "unit": "fold"}, {"measurement": "IC50", "setting": "CETP", "result": "0.38 ± 0.08", "unit": "µM"}, {"measurement": "inhibition at 10 min, 10 µM", "setting": "CYP3A4", "result": "< 20", "unit": "%"}, {"measurement": "CYPs Direct Inhibition Mean (10 μM) 2D6", "setting": "CYP2D6", "result": "No inhibition"}, {"measurement": "inhibition at 10 min, 10 µM", "setting": "CYP2D6; pH 7.4, probe dextromethorphan (5 μM), read-out: CYPs Direct Inhibition Mean (10 μM) 2D6", "result": "< 20", "unit": "%"}, {"measurement": "CYPs Direct Inhibition Mean (10 μM) 1A2", "setting": "CYP1A2", "result": "No inhibition"}, {"measurement": "inhibition at 10 min, 10 µM", "setting": "CYP1A2; pH 7.4, probe phenacetin (10 μM), read-out: CYPs Direct Inhibition Mean (10 μM) 1A2", "result": "< 20", "unit": "%"}, {"measurement": "microsomal CLint at 10 μM", "setting": "[1]", "result": 146, "unit": "µL/min/mg"}, {"measurement": "inhibition at 10 min, 10 µM", "setting": "CYP2C9", "result": "< 20", "unit": "%"}, {"measurement": "microsomal CLint at 10 μM", "setting": "[2]", "result": 119, "unit": "µL/min/mg"}]}
{"smiles": "COc1ccc(C(C)C)cc1C1=C(CN(Cc2ccc(C(F)(F)F)cc2)c2nnn(C)n2)CC(C)(C)CC1", "note": "[Compound 43, N-((2-(5-Isopropyl-2-methoxyphenyl)-5,5-dimethylcyclohex-1-enyl)methyl)-2-methyl-N-(4-(trifluoromethyl)-benzyl)-2H-tetrazol-5-amine]", "values": [{"measurement": "CETP inhibition (in words)", "setting": "CETP", "result": "no CETP inhibition"}, {"measurement": "IC50", "setting": "CETP", "result": "> 50", "unit": "µM"}]}
{"smiles": "COc1ccc(C(C)C)cc1C1=C(CN(Cc2ccc(OC(F)(F)F)cc2)c2nnn(C)n2)CC(C)(C)CC1", "note": "[Compound 44, N-((2-(5-Isopropyl-2-methoxyphenyl)-5,5-dimethylcyclohex-1-enyl)methyl)-2-methyl-N-(4-(trifluoro-methoxy)benzyl)-2H-tetrazol-5-amine]", "values": [{"measurement": "CETP inhibition (in words)", "setting": "CETP", "result": "no CETP inhibition"}, {"measurement": "IC50", "setting": "CETP", "result": "> 50", "unit": "µM"}]}
{"smiles": "CCC(CC)CC1(C(=O)Nc2ccccc2SC(=O)C(C)C)CCCCC1", "note": "[Dalcetrapib]", "values": [{"measurement": "elevation of HDL-C levels", "setting": "HDL-C levels", "result": "up to 30%"}, {"measurement": "effect on LDL-C levels", "setting": "LDL-C levels", "result": "minimal effect"}]}
{"smiles": "Cc1cc(C)c2c(c1)[C@@H](N(Cc1cc(C(F)(F)F)cc(C(F)(F)F)c1)c1nnn(C)n1)CCCN2C[C@H]1CC[C@H](C(=O)O)CC1", "note": "[Evacetrapib]", "values": [{"measurement": "raising of HDL-C levels", "setting": "HDL-C levels", "result": "more than 129%"}, {"measurement": "decrease of LDL-C", "setting": "LDL-C levels", "result": "up to 36%"}]}
